Data: patent publication US9309276B2, “Synthetic lipid A derivative” (University of Georgia Research Foundation, Inc., priority 2007, dated 2016)

Test system: Mono Mac 6 (MM6) cells
Assay: TNF-α induction in human monocytic Mono Mac 6 cells (ELISA)
Assay type: cell-based
Settings: 5.5 h at 37° C., increasing concentrations
Method: MM6 cells were incubated for 5.5 h at 37° C. with increasing concentrations of E. coli LPS and synthetic compounds 103 and 104 as indicated. TNF-α protein in cell supernatants was measured using ELISA. (103 and 104 show background values and therefore overlap in the figure).
We have chemically synthesized the tetra-acylated lipid As 103 and 104 (FIG. 8) to study whether LPS derived from P. gingivalis can induce cellular activation in a TLR2- or TLR4-dependent manner. Furthermore, there are indications that LPS of P. gingivalis can antagonize cytokine production induced by enteric LPS and therefore these properties have also been studied. […]
Mono Mac 6 (MM6) cells, provided by Dr. H. W. L. Ziegler-Heitbrock (Institute for Inhalationbiology, Munich, Germany), were cultured in RPMI 1640 medium with L-glutamine (BioWhittaker) supplemented with penicillin (100 u mL^−1)/streptomycin (100 μg mL^−1; Mediatech, OPI supplement (1%; Sigma; containing oxaloacetate, pyruvate and bovine insulin) and fetal calf serum (FCS; 10%; HyClone). New batches of frozen cell stock were grown up every 2 months and growth morphology evaluated. Before each experiment, MM6 cells were incubated with calcitriol (10 ng mL^−1; Sigma) for 2 days to differentiate into macrophage like cells. […]

Structure (SMILES)	TNF-α induction (in words)
CCCCCCCCCCCCCCCC(=O)O[C@H](CCCCCCCCCCCC(C)C)CC(=O)N[C@H]1[C@H](OC[C@H]2O[C@H](OP(=O)(O)O)[C@H](NC(=O)C[C@H](O)CCCCCCCCCCCC(C)C)[C@@H](O)[C@@H]2O)O[C@H](CO)[C@@H](O)[C@@H]1ONC(=O)C[C@H](O)CCCCCCCCCC(C)C [Compound 104, 6-O-{2-Deoxy-2-[(R)-3-hexadecanoyloxy-15-methyl-hexadecanoylamino]-3-O—[(R)-3-hydroxy-13-methyl-tetradecanoylamino]-β-D-glucopyranosyl}-2-deoxy-2-[(R)-3-hydroxy-15-methyl-hexadecanoylamino]-α-D-glucopyranose 1-phosphate]	did not exhibit any activity
CCCCCCCCCCCCCCCC(=O)O[C@H](CCCCCCCCCCCC(C)C)CC(=O)N[C@H]1[C@H](OC[C@H]2O[C@H](OP(=O)(O)O)[C@H](NC(=O)C[C@H](O)CCCCCCCCCCCC(C)C)[C@@H](OC(=O)C[C@H](O)CCCCCCCCCCCCC)[C@@H]2O)O[C@H](CO)[C@@H](O)[C@@H]1O [Compound 103, 6-O-{2-Deoxy-2-[(R)-3-hexadecanoyloxy-15-methyl-hexadecanoylamino]-β-D-glucopyranosyl}-3-O—[(R)-3-hydroxy-hexadecanoyl]-2-deoxy-2-[(R)-3-hydroxy-15-methyl-hexadecanoylamino]-α-D-glucopyranose 1-phosphate]	did not exhibit any activity
